Results from patent publication US20090075935A1, “COMPOSITION COMPRISING AT LEAST ONE C-GLYCOSIDE DERIVATIVE AND AT LEAST ONE HYALURONIC ACID AND ITS COSMETIC USE” (L'OREAL, priority 2006, published 2009).

Test system: keratinocyte transglutaminase (TGk)
Test: Assaying of keratinocyte transglutaminase (TGk) activity in mitomycin-pretreated NHEKs in deficient medium (radiochemical assay)
Type: cell-based, human
Set-up: key to Significant variation relative to the control: NS = not significant
Details: for % Activity relative to the control / Significant variation relative to the control: TGk activity, medium with mitomycin, depleted medium, 96 hours
From the text: For this, normal human epidermal keratinocytes (NHEKs), pretreated with mitomycin so as to prevent proliferation thereof, in a deficient medium made up of 40% of depleted SFM medium and 60% of Earle's balanced salt solution (EBSS) buffer were placed in culture. The metabolism of these cells having been thus slowed down, their ability to differentiate is then quantified by assaying, using a standard radiochemical assay, the keratinocyte transglutaminase activity (TGk) of the NHEKs pretreated with the active agents. […] Normal human keratinocytes were cultured at 37° C. and 5% CO2 for 24 h in complete SFM medium. The cell divisions were then blocked by treatment with mitomycin C (10 μg/ml) for 2 hours at 37° C. and 5% CO2. The cells were then incubated for 96 hours in deficient or nondeficient (control) medium containing or not containing various concentrations of the test or reference products. […] The treatments were carried out in triplicate (n=3). At the end of the incubation, the TGk membrane enzyme was extracted in the presence of Triton X-100 and the TGk activity was determined by measuring the covalent addition of tritiated putrescine, at a final concentration of 2 μCi/ml, to caseine (acceptor protein, 2 mg/ml final concentration). The caseine was precipitated by addition of trichloroacetic acid (TCA) and the precipitates were recovered on filters and a collector and then the dry filters were counted by liquid scintillation.

Question: What does the source list for CC(O)C[C@@H]1OC[C@@H](O)[C@H](O)[C@H]1O (stereo partly drawn) [C-β-D-xylopyranoside-2-hydroxypropane]?
Answer: % Activity relative to the control (0.06%): 128%; Significant variation relative to the control (0.06%): NS; effect on the TGk activity (tested at 0.06%): no significant effect

Question: Which “% Activity relative to the control” value (0.16%) does the source give for CC(O)CO (stereo not drawn) [1,2-propanediol] here?
Answer: 87%

Question: What about the “Significant variation relative to the control” value (0.16%) of the same compound?
Answer: NS

Question: And the “effect on the TGk activity” value (tested at 0.8%)?
Answer: did not modify the activity

Question: [Ca+2].[Cl-].[Cl-] [CaCl2, Calcium chloride, reference compound] was tested. Which “effect on the TGk activity of the keratinocytes” value (1.5 mM) did it give?
Answer: clearly increased the TGk activity

Question: And the “% Activity relative to the control” value (1.5 mM)?
Answer: 557%

Question: What about the “Significant variation relative to the control” value (1.5 mM) of the same compound?
Answer: +457%

Question: How did the “% Activity relative to the control” value (0.02%) turn out when Hyaluronic acid was run?
Answer: 88%

Question: And the “Significant variation relative to the control” value (0.02%)?
Answer: NS

Question: What about the “effect on the keratinocyte transglutaminase activity” value (tested alone at 0.02%) of the same compound?
Answer: no effect
